# In ChEMBL document CHEMBL1126326, “Novel antagonists of the 5-HT3 receptor. Synthesis and structure-activity relationships of (2-alkoxybenzoyl)ureas” (J Med Chem, 1992):
# Target: T1, Serotonin 3 (5-HT3) receptor (Rattus norvegicus, UniProt P35563+Q9JJ16)
# T1 sequence (P35563 whole entry): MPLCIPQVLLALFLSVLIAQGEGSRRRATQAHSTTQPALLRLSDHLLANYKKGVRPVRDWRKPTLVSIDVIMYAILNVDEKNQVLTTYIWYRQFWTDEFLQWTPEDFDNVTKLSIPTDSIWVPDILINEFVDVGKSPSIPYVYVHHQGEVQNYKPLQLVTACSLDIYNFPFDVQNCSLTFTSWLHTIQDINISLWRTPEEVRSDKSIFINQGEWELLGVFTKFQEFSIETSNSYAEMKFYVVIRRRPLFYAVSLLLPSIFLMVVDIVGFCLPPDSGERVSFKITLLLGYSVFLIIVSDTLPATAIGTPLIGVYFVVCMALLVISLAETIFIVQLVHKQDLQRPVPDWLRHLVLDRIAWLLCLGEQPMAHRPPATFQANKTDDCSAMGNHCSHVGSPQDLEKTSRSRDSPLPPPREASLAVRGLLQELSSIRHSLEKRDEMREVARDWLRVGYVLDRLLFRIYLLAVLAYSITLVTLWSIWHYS
# T1 sequence (Q9JJ16 whole entry): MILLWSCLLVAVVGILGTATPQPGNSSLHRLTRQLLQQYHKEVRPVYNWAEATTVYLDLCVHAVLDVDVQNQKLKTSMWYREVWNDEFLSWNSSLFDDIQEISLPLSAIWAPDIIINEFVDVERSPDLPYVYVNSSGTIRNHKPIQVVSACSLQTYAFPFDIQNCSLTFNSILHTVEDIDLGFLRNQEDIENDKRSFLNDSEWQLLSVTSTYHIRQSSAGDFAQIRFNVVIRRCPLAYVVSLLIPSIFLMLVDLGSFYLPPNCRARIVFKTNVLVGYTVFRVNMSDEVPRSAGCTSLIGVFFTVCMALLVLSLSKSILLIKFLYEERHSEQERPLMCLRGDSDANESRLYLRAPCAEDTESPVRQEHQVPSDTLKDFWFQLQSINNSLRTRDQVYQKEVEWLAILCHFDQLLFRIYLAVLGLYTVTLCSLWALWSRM
# Test: In vitro antagonism of the 5-HT-3 receptor determined by inhibition of 5-HT-induced depolarization of the isolated rat vagus nerve.
# Type: functional
# Conditions: read-out: pA2 (converted)
row,SMILES,Kb
1,COc1ccccc1C(=O)NC(=O)N[C@H]1CN2CCC1CC2,7.08 nM
2,COc1cc([N+](=O)[O-])ccc1C(=O)NC(=O)NC1CC2CCC(C1)N2C (centres undefined),> 100 nM
3,COc1ccc(C(=O)NC(=O)NC2CN3CCC2CC3)cc1 (centres undefined),> 316 nM
4,COc1ccc(Cl)cc1C(=O)NC(=O)NC1CC2CCC(C1)N2C (centres undefined),46.8 nM
5,CN1C2CCC1CC(NC(=O)NC(=O)c1ccccc1OCC1CC1)C2 (centres undefined),1.26 nM
6,CN1CCC(OC(=O)NC(=O)c2cc(Cl)cc(Cl)c2)CC1,126 nM
7,COc1ccccc1C(=O)NC(=O)OC1CN2CCC1CC2 (centres undefined),36.3 nM
8,COc1ccccc1C(=O)NC(=O)NC1CC2CCCC(C1)N2C (centres undefined),39.8 nM
9,COc1ccccc1C(=O)NC(=O)NC1CC2CCC(C1)N2C (centres undefined) [listing 1 of 2 here],2.51 nM
10,COc1cc(N)c(Cl)cc1C(=O)NC(=O)NC1CC2CCC(C1)N2C (centres undefined),79.4 nM
11,CC(C)Oc1ccccc1C(=O)NC(=O)NC1CC2CCC(C1)N2C (centres undefined),0.631 nM
12,CC(C)CCOc1ccccc1C(=O)NC(=O)NC1CC2CCC(C1)N2C (centres undefined),6.31 nM
13,CCOc1ccccc1C(=O)NC(=O)NC1CC2CCC(C1)N2C (centres undefined),2.04 nM
14,CN1[C@@H]2CC[C@H]1C[C@@H](OC(=O)c1cc(Cl)cc(Cl)c1)C2 [BEMESETRON],15.8 nM
15,CCCOc1ccccc1C(=O)NC(=O)NC1CC2CCC(C1)N2C (centres undefined),1.26 nM
16,O=C(NC(=O)c1cc(Cl)cc(Cl)c1)NC1CN2CCC1CC2 (centres undefined),200 nM
17,CCCCOc1ccccc1C(=O)NC(=O)NC1CC2CCC(C1)N2C (centres undefined),2 nM
18,O=C(NC(=O)c1ccccc1F)NC1CN2CCC1CC2 (centres undefined),> 316 nM
19,COc1ccccc1C(=O)NC(=O)NC1CN2CCC1CC2 (centres undefined),10 nM
20,CC(C)COc1ccccc1C(=O)NC(=O)NC1CC2CCC(C1)N2C (centres undefined),3.16 nM
21,COc1ccccc1C(=O)NC(=O)N[C@@H]1CN2CCC1CC2,56.2 nM
22,CN1C2CCC1CC(NC(=O)NC(=O)c1ccccc1O)C2 (centres undefined),12.6 nM
23,CCCCCOc1ccccc1C(=O)NC(=O)NC1CC2CCC(C1)N2C (centres undefined),31.6 nM
24,COc1cccc(OC)c1C(=O)NC(=O)NC1CN2CCC1CC2 (centres undefined),> 316 nM
25,Cc1ccccc1C(=O)NC(=O)NC1CN2CCC1CC2 (centres undefined),251 nM
26,COc1cc(N)ccc1C(=O)NC(=O)NC1CC2CCC(C1)N2C (centres undefined),158 nM
27,COc1ccccc1C(=O)NC(=O)NC1CC2CCC(C1)N2C (centres undefined) [listing 2 of 2 here],> 31.6 nM
28,COc1ccccc1C(=O)NC(=O)OC1CC2CCC(C1)N2C (centres undefined),17 nM
29,COc1cc(N)c(Cl)cc1C(=O)NC1CN2CCC1CC2 (centres undefined) [ZACOPRIDE],0.794 nM
